Activity calls are given as the source filed them. No rule for the calls is given here.
Tested on: rodent lifetime carcinogenesis bioassay, tumor incidence TD50
Test: chronic cancer bioassays in animals – CPDB, compiled studies (AID 1745844)

Structure (SMILES): OCc1ccccc1
- TD50 (mouse, strain B6C3F1, females, by gavage, site: any site (literature study), lesion: several types, types named in the paper, dosed 103 weeks, study length 104 weeks): 57500 mg/kg/day (inactive)
- TD50 (mouse, strain B6C3F1, females, by gavage, site: liver, lesion: hepatocellular adenoma + hepatocellular carcinoma + neoplastic nodule, dosed 103 weeks, study length 104 weeks): 1040 mg/kg/day
- TD50 (mouse, strain B6C3F1, males, by gavage, site: adrenal gland, lesion: cortical adenoma, dosed 103 weeks, study length 104 weeks): 1620 mg/kg/day (inactive)
- TD50 (mouse, strain B6C3F1, males, by gavage, site: liver, lesion: hepatocellular adenoma + hepatocellular carcinoma + neoplastic nodule, dosed 103 weeks, study length 104 weeks): 588 mg/kg/day
- TD50 (mouse, strain B6C3F1, males, by gavage, site: lung, lesion: alveolar/bronchiolar adenoma + alveolar/bronchiolar carcinoma, dosed 103 weeks, study length 104 weeks): 546 mg/kg/day
- TD50 (rat, strain Fischer 344, females, by gavage, site: any site (literature study), lesion: several types, types named in the paper, dosed 103 weeks, study length 104 weeks): 885 mg/kg/day (inactive)
- TD50 (rat, strain Fischer 344, males, by gavage, site: mammary gland, lesion: adenoma, NOS + fibroadenoma, dosed 103 weeks, study length 104 weeks): 1140 mg/kg/day (inactive)
- TD50 (rat, strain Fischer 344, males, by gavage, site: mammary gland, lesion: fibroadenoma, dosed 103 weeks, study length 104 weeks): 1380 mg/kg/day

Structure (SMILES): CC1CN(N=O)CC(C)N1C (stereo not drawn)
- TD50 (hamster, strain Syrian Golden, males, by gavage, site: forestomach, lesion: papilloma, dosed 46 weeks, study length 69 weeks): 1.32 mg/kg/day
- TD50 (hamster, strain Syrian Golden, males, by gavage, site: liver, lesion: angiosarcoma, dosed 46 weeks, study length 69 weeks): 6.18 mg/kg/day
- TD50 (hamster, strain Syrian Golden, males, by gavage, site: lung, lesion: adenoma, dosed 46 weeks, study length 69 weeks): 1.73 mg/kg/day
- TD50 (hamster, strain Syrian Golden, males, by gavage, site: lung, lesion: carcinoma, dosed 46 weeks, study length 69 weeks): 3.2 mg/kg/day
- TD50 (rat, strain Fischer 344, females, in drinking water, site: nasal cavity, lesion: olfactory carcinoma, dosed 30 weeks, study length 85 weeks): 0.151 mg/kg/day

Structure (SMILES): Cc1cccc(Nc2cc(Cl)nc(SCC(=O)NCCO)n2)c1C
- TD50 (mouse, strain CSb, females, in feed, site: liver, lesion: hepatocellular carcinoma, dosed 82 weeks, study length 82 weeks): 44.6 mg/kg/day
- TD50 (rat, strain Fischer 344, males, in feed, site: liver, lesion: hepatocellular carcinoma, dosed 75 weeks, study length 82 weeks): 6.49 mg/kg/day

Structure (SMILES): Nc1cnn([C@@H]2O[C@H](CO)[C@@H](O)[C@H]2O)c(=O)n1
- carcinogen call (rat, strain Fischer 344, males, i.p., site: any site (literature study), lesion: one or several types, types not named, dosed 52 weeks, study length 52 weeks): negative (inactive)

Structure (SMILES): O=NN1CCCC1c1ccc[n+]([O-])c1 (stereo not drawn)
- TD50 (hamster, strain Syrian Golden, females, in drinking water, site: liver, lesion: angiosarcoma, dosed 31 weeks, study length 96 weeks): 39 mg/kg/day (inactive)
- TD50 (rat, strain Fischer 344, females, in drinking water, site: esophagus, lesion: several types, types named in the paper, dosed 36 weeks, study length 104 weeks): 5.65 mg/kg/day
- TD50 (rat, strain Fischer 344, females, in drinking water, site: nasal cavity, lesion: several types, types named in the paper, dosed 36 weeks, study length 104 weeks): 1.86 mg/kg/day
- TD50 (rat, strain Fischer 344, males, in drinking water, site: esophagus, lesion: papilloma, dosed 36 weeks, study length 104 weeks): 2.64 mg/kg/day
- TD50 (rat, strain Fischer 344, males, in drinking water, site: esophagus, lesion: several types, types named in the paper, dosed 36 weeks, study length 104 weeks): 1.63 mg/kg/day
- TD50 (rat, strain Fischer 344, males, in drinking water, site: nasal cavity, lesion: malignant tumor, dosed 36 weeks, study length 104 weeks): 1.63 mg/kg/day
- TD50 (rat, strain Fischer 344, males, in drinking water, site: nasal cavity, lesion: papilloma, dosed 36 weeks, study length 104 weeks): 2.64 mg/kg/day
- TD50 (rat, strain Fischer 344, males, in drinking water, site: nasal cavity, lesion: several types, types named in the paper, dosed 36 weeks, study length 104 weeks): 0.573 mg/kg/day

Structure (SMILES): c1ccc2ccccc2c1
- TD50 (mouse, strain B6C3F1, females, inhaled, site: any site (literature study), lesion: several types, types named in the paper, dosed 103 weeks, study length 104 weeks): 128 mg/kg/day
- TD50 (mouse, strain B6C3F1, females, inhaled, site: lung, lesion: alveolar/bronchiolar adenoma + alveolar/bronchiolar carcinoma, dosed 103 weeks, study length 104 weeks): 163 mg/kg/day
- TD50 (mouse, strain B6C3F1, females, inhaled, site: lung, lesion: alveolar/bronchiolar adenoma, dosed 103 weeks, study length 104 weeks): 171 mg/kg/day
- TD50 (mouse, strain B6C3F1, females, inhaled, site: lung, lesion: alveolar/bronchiolar carcinoma, dosed 103 weeks, study length 104 weeks): 4020 mg/kg/day
- carcinogen call (mouse, strain B6C3F1, males, inhaled, site: any site (literature study), lesion: several types, types named in the paper, dosed 103 weeks, study length 104 weeks): negative (inactive)
- TD50 (rat, strain Fischer 344, females, inhaled, site: nasal cavity, olfactory epithelium + nasal cavity, respiratory epithelium, lesion: neuroblastoma + adenoma, dosed 105 weeks, study length 105 weeks): 37.3 mg/kg/day
- TD50 (rat, strain Fischer 344, females, inhaled, site: nasal cavity, olfactory epithelium, lesion: neuroblastoma, dosed 105 weeks, study length 105 weeks): 52.9 mg/kg/day
- TD50 (rat, strain Fischer 344, females, inhaled, site: nasal cavity, respiratory epithelium, lesion: adenoma, dosed 105 weeks, study length 105 weeks): 121 mg/kg/day
- TD50 (rat, strain Fischer 344, males, inhaled, site: any site (literature study), lesion: several types, types named in the paper, dosed 104 weeks, study length 104 weeks): 27.5 mg/kg/day
- TD50 (rat, strain Fischer 344, males, inhaled, site: liver, lesion: hepatocellular adenoma + hepatoblastoma + hepatocellular carcinoma, dosed 104 weeks, study length 104 weeks): 171 mg/kg/day
- TD50 (rat, strain Fischer 344, males, inhaled, site: mammary gland, lesion: fibroadenoma, dosed 104 weeks, study length 104 weeks): 133 mg/kg/day
- TD50 (rat, strain Fischer 344, males, inhaled, site: nasal cavity, olfactory epithelium + nasal cavity, respiratory epithelium, lesion: neuroblastoma + adenoma, dosed 104 weeks, study length 104 weeks): 12.3 mg/kg/day
- TD50 (rat, strain Fischer 344, males, inhaled, site: nasal cavity, olfactory epithelium, lesion: neuroblastoma, dosed 104 weeks, study length 104 weeks): 88 mg/kg/day
- TD50 (rat, strain Fischer 344, males, inhaled, site: nasal cavity, respiratory epithelium, lesion: adenoma, dosed 104 weeks, study length 104 weeks): 14 mg/kg/day

Reference: PubChem BioAssay AID1745844 (Carcinogenic Potency Database (CPDB), 2022)
